In patent publication US8993585B2, “Cyclic amine substituted pyrimidinediamines as PKC inhibitors” (Rigel Pharmaceuticals, Inc., priority 2007, dated 2015):

How the values were obtained:
Human primary T cells = assay: IL-2 ELISA, Human Primary T Cell, Anti-CD3+CD28+ (Example 3); type: cell-based; details: anti-CD3+CD28 stimulation
Procedure, shortened: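 Human primary T cells, 100,000 per well, were pre-incubated with compound in Yssel's medium for 1 h at 37 °C. The counter-assay used 0.5 ng/ml PMA with 0.1 uM ionomycin final.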

PKC theta = target: T1, PKC theta (Homo sapiens, UniProt Q04759); assay: PKC assay, fluorescence polarization (Example 2), PKC theta; type: biochemical; details: 5 μM ATP
T1 construct: purchased Upstate Biotechnologies, Temecula, CA 14-444
T1 sequence (Q04759 whole entry): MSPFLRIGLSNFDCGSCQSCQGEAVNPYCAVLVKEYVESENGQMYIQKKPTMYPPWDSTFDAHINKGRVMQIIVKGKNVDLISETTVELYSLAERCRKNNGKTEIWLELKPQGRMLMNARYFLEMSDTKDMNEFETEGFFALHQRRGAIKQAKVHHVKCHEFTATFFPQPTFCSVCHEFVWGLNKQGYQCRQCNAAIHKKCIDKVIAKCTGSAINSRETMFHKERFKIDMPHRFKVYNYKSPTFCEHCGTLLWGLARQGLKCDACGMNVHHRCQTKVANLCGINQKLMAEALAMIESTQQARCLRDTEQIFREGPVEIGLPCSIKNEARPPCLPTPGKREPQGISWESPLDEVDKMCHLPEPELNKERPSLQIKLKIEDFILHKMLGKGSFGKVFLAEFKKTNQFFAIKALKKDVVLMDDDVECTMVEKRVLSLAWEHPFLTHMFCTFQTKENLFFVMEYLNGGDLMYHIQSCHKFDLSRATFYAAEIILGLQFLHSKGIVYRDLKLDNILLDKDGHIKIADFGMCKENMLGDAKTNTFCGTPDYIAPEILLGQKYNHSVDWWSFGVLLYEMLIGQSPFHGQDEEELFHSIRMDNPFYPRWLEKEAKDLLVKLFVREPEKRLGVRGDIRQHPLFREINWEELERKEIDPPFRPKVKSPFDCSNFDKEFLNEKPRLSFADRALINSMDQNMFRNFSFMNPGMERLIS
Procedure, shortened: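 Phosphorylated peptide product detected by fluorescence polarization, with EDTA quench plus peptide tracer and antibody. Reaction in 20 mM HEPES pH 7.4, 5 mM MgCl2, 0.2 mM CaCl2, 1 mM DTT, 0.02% Brij-35, phosphatidylserine and dioleoyl-sn-glycerol, with 5 μM ATP and 5 μM peptide. Started with enzyme, 20 min at room temperature.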

PKC epsilon = target: T2, PKC epsilon (Homo sapiens, UniProt Q02156); assay: PKC assay, fluorescence polarization (Example 2), PKC epsilon; type: biochemical; details: 5 μM ATP
T2 construct: purchased Upstate Biotechnologies, Temecula, CA 14-518
T2 sequence (Q02156 1-737): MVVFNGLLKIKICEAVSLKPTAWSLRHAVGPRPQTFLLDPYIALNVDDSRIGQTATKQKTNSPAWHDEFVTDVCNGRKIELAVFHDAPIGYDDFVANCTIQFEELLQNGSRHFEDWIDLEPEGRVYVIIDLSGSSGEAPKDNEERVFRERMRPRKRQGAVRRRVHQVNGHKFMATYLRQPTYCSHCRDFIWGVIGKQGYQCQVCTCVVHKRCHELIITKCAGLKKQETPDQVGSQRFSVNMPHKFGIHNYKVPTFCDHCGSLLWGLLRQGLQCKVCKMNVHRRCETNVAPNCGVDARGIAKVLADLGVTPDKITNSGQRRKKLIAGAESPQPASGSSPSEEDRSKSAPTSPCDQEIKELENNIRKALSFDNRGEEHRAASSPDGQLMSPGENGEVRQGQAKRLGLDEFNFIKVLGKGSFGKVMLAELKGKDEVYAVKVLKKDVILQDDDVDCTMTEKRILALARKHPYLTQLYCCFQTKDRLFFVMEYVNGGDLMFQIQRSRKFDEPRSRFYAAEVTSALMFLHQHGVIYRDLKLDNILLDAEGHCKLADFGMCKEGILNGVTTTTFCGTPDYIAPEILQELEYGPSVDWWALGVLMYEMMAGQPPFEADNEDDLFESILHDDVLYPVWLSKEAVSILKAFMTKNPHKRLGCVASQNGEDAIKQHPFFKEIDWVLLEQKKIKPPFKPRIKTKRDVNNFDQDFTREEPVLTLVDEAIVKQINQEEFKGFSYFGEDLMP
Method: The inhibition of PKC activity was measured by monitoring the production of phosphorylated peptide by fluorescence polarization at different concentrations of the inhibitor. Reactions were carried out in 96-well plate format with a total volume of 20 μL containing 20 mM HEPES, pH 7.4, 5 mM MgCl2, 0.2 mM CaCl2, 1 mM DTT, 0.02% Brij-35, 0.1 mg/mL phosphatidylserine, 0.02 mg/mL dioleoyl-sn-glycerol and 5 μM each of ATP and the peptide substrate. Compounds were first diluted serially in DMSO and then transferred to a solution containing the above concentrations of HEPES, MgCl2, CaCl2, DTT, and Brij-35 to yield 5× compound solutions in 2% DMSO, which was then added to the reaction solution. Reactions were initiated by the addition of PKC at a typical concentration as described in Table VI, and then allowed to incubate at room temperature for 20 min. At the end of this time, a combination of quench (EDTA) and detection (peptide tracer and antibody) reagents was added using the protocol of Invitrogen P2748.

`COc1cc(Nc2ncc(C#N)c(NC3CC(C)(C)N(C)C(C)(C)C3)n2)cc(-n2nnnc2C)c1` [Compound I-365] was tested, and the IC50 (Human primary T cells; Homo sapiens, T-cell, 24 h) was 56.6 nM, the IC50 (PKC theta) was 0.62 nM and the IC50 (PKC epsilon) was 7.34 nM.
Compound `COc1ccc(Nc2ncc(C#N)c(NC3CC(C)(C)N(C)C(C)(C)C3)n2)cc1OC(F)F` [Compound I-366] has an IC50 (Human primary T cells; Homo sapiens, T-cell, 24 h) of 122 nM, an IC50 (PKC theta) of 1.71 nM and an IC50 (PKC epsilon) of 89.6 nM.
Compound `CC1(C)CC(Nc2nc(Nc3cc(OCC(F)(F)F)cc(OCC(F)(F)F)c3)ncc2F)CC(C)(C)N1` [Compound I-375] has an IC50 (Human primary T cells; Homo sapiens, T-cell, 24 h) of 350 nM, an IC50 (PKC theta) of 1.2 nM and an IC50 (PKC epsilon) of 200 nM.
For `COc1ccc(Nc2ncc(C#N)c(NC3CC(C)(C)N(C)C(C)(C)C3)n2)cc1-n1c(C)ccc1C` [Compound I-376], the IC50 (Human primary T cells; Homo sapiens, T-cell, 24 h) was 260 nM, the IC50 (PKC theta) was 0.4 nM and the IC50 (PKC epsilon) was 935 nM.
`CN1C(C)(C)CC(Nc2nc(Nc3cc(OCC(F)(F)F)cc(OCC(F)(F)F)c3)ncc2F)CC1(C)C` [Compound I-378] gave an IC50 (Human primary T cells; Homo sapiens, T-cell, 24 h) of 310 nM, an IC50 (PKC theta) of 3.5 nM and an IC50 (PKC epsilon) of 42.9 nM.
`CCOc1ccc(Nc2ncc(F)c(NC3CC(C)(C)NC(C)(C)C3)n2)cc1-n1nnnc1CC` [Compound I-415] showed an IC50 (Human primary T cells; Homo sapiens, T-cell, 24 h) of 60 nM, an IC50 (PKC theta) of 0.5 nM and an IC50 (PKC epsilon) of 13 nM.
With `CSc1nnnn1-c1cccc(Nc2ncc(F)c(NC3CC(C)(C)NC(C)(C)C3)n2)c1` [Compound I-416] the IC50 (Human primary T cells; Homo sapiens, T-cell, 24 h) was 80 nM, the IC50 (PKC theta) was 3.3 nM and the IC50 (PKC epsilon) was 13 nM.
Work on `CCOc1ccc(Nc2ncc(C(N)=O)c(NC3CC(C)(C)N(C)C(C)(C)C3)n2)cc1-n1nnnc1CC` [Compound I-420] yielded an IC50 (Human primary T cells; Homo sapiens, T-cell, 24 h) of 250 nM, an IC50 (PKC theta) of 3.2 nM and an IC50 (PKC epsilon) of 115 nM.
`COc1cc(Nc2ncc(Br)c(NC3CC(C)(C)N(C)C(C)(C)C3)n2)cc(OC)c1` [Compound I-422] was tested, and the IC50 (Human primary T cells; Homo sapiens, T-cell, 24 h) was 250 nM, the IC50 (PKC theta) was 10.2 nM and the IC50 (PKC epsilon) was 165 nM.
Work on `COc1ccc(Nc2ncc(F)c(NC3CC(C)(C)NC(C)(C)C3)n2)cc1OC(F)F` [Compound I-444] yielded an IC50 (Human primary T cells; Homo sapiens, T-cell, 24 h) of 180 nM, an IC50 (PKC theta) of 1.1 nM and an IC50 (PKC epsilon) of 157 nM.
Work on `CN1C(C)(C)CC(Nc2nc(Nc3ccc(CN4CCOCC4)c(C#N)c3)ncc2F)CC1(C)C` [Compound I-450] yielded an IC50 (Human primary T cells; 24 hours) of 260 nM, an IC50 (PKC theta) of 2.5 nM and an IC50 (PKC epsilon) of 9 nM.
For `Cc1ccc(Nc2ncc(F)c(NC3CC(C)(C)NC(C)(C)C3)n2)cc1-n1cnnn1` [Compound I-455], the IC50 (Human primary T cells; Homo sapiens, T-cell, 24 h) was 70 nM, the IC50 (PKC theta) was 1.3 nM and the IC50 (PKC epsilon) was 8 nM.
In the case of `CSc1nnnn1-c1cccc(Nc2ncc(C(N)=O)c(NC3CC(C)(C)N(C)C(C)(C)C3)n2)c1` [Compound I-456], the IC50 (Human primary T cells; Homo sapiens, T-cell, 24 h) is reported as 350 nM, the IC50 (PKC theta) is reported as 6.3 nM and the IC50 (PKC epsilon) is reported as 49 nM.
With `Cc1ccc(Nc2ncc(C#N)c(NC3CC(C)(C)N(C)C(C)(C)C3)n2)cc1-n1cnnn1` [Compound I-459] the IC50 (Human primary T cells; Homo sapiens, T-cell, 24 h) was 50 nM, the IC50 (PKC theta) was 0.3 nM and the IC50 (PKC epsilon) was 22 nM.
For `CCOc1ccc(Nc2ncc(C#N)c(NC3CC(C)(C)N(C)C(C)(C)C3)n2)cc1-n1nnnc1CC` [Compound I-460], the IC50 (Human primary T cells; Homo sapiens, T-cell, 24 h) was 30 nM, the IC50 (PKC theta) was 0.4 nM and the IC50 (PKC epsilon) was 60 nM.
`Cc1ccc(Nc2ncc(C#N)c(NC3CC(C)(C)NC(C)(C)C3)n2)cc1-n1cnnn1` [Compound I-461] showed an IC50 (Human primary T cells; Homo sapiens, T-cell, 24 h) of 230 nM, an IC50 (PKC theta) of 0.8 nM and an IC50 (PKC epsilon) of 50 nM.
`Cc1nnnn1-c1cccc(Nc2ncc(C#N)c(NC3CC(C)(C)NC(C)(C)C3)n2)c1` [Compound I-463] gave an IC50 (Human primary T cells; Homo sapiens, T-cell, 24 h) of 590 nM, an IC50 (PKC theta) of 3.6 nM and an IC50 (PKC epsilon) of 125 nM.
`CSc1nnnn1-c1cccc(Nc2ncc(C#N)c(NC3CC(C)(C)NC(C)(C)C3)n2)c1` [Compound I-465] was tested, and the IC50 (Human primary T cells; Homo sapiens, T-cell, 24 h) was 280 nM, the IC50 (PKC theta) was 3.4 nM and the IC50 (PKC epsilon) was 115 nM.
Compound `CCOc1ccc(Nc2ncc(C#N)c(NC3CC(C)(C)NC(C)(C)C3)n2)cc1-n1nnnc1CC` [Compound I-469] has an IC50 (Human primary T cells; Homo sapiens, T-cell, 24 h) of 120 nM, an IC50 (PKC theta) of 1.5 nM and an IC50 (PKC epsilon) of 129 nM.
With `CN1C(C)(C)CC(Nc2nc(Nc3ccc4ncccc4c3)ncc2F)CC1(C)C` [II-1] the IC50 (Human primary T cells; Homo sapiens, T-cell, 24 h) was 612 nM, the IC50 (PKC theta) was 9.66 nM and the IC50 (PKC epsilon) was 144 nM.
`CN1C(=O)C(F)(F)Oc2cc(Nc3ncc(F)c(NC4CC(C)(C)N(C)C(C)(C)C4)n3)ccc21` [II-8] showed an IC50 (Human primary T cells; Homo sapiens, T-cell, 24 h) of 90 nM, an IC50 (PKC theta) of 2.43 nM and an IC50 (PKC epsilon) of 57.9 nM.
In the case of `CCN1C(=O)C(F)(F)Oc2cc(Nc3ncc(F)c(NC4CC(C)(C)N(C)C(C)(C)C4)n3)cnc21` [II-27], the IC50 (Human primary T cells; Homo sapiens, T-cell, 24 h) is reported as 210 nM, the IC50 (PKC theta) is reported as 3.88 nM and the IC50 (PKC epsilon) is reported as 65.8 nM.
`CCN1C(=O)C(F)(F)Oc2cc(Nc3ncc(F)c(NC4CC(C)(C)N(C)C(C)(C)C4)n3)ccc21` [II-31] gave an IC50 (Human primary T cells; Homo sapiens, T-cell, 24 h) of 26.4 nM, an IC50 (PKC theta) of 1.35 nM and an IC50 (PKC epsilon) of 27.1 nM.
In the case of `CN1C(=O)C(C)(C)Oc2cc(Nc3ncc(F)c(NC4CC(C)(C)N(C)C(C)(C)C4)n3)ccc21` [II-34], the IC50 (Human primary T cells; Homo sapiens, T-cell, 24 h) is reported as 224 nM, the IC50 (PKC theta) is reported as 15.7 nM and the IC50 (PKC epsilon) is reported as 102 nM.
`CCN1C(=O)C(C)(C)Oc2cc(Nc3ncc(F)c(NC4CC(C)(C)N(C)C(C)(C)C4)n3)ccc21` [II-35] gave an IC50 (Human primary T cells; Homo sapiens, T-cell, 24 h) of 142 nM, an IC50 (PKC theta) of 8.94 nM and an IC50 (PKC epsilon) of 159 nM.
In the case of `CCN1C(=O)C(C)(C)Oc2cc(Nc3ncc(C#N)c(NC4CC(C)(C)N(C)C(C)(C)C4)n3)ccc21` [II-45], the IC50 (Human primary T cells; Homo sapiens, T-cell, 24 h) is reported as 103 nM, the IC50 (PKC theta) is reported as 1.8 nM and the IC50 (PKC epsilon) is reported as 179 nM.
`CCN1C(=O)C(C)(C)Oc2cc(Nc3ncc(Br)c(NC4CC(C)(C)N(C)C(C)(C)C4)n3)ccc21` [II-128] was tested, and the IC50 (Human primary T cells; Homo sapiens, T-cell, 24 h) was 80 nM, the IC50 (PKC theta) was 0.5 nM and the IC50 (PKC epsilon) was 202 nM.
`CCN1C(=O)C(C)(C)Oc2cc(Nc3ncc(C)c(NC4CC(C)(C)N(C)C(C)(C)C4)n3)ccc21` [II-145] showed an IC50 (Human primary T cells; Homo sapiens, T-cell, 24 h) of 370 nM, an IC50 (PKC theta) of 28.1 nM and an IC50 (PKC epsilon) of 2690 nM.
In the case of `CN1C(C)(C)CC(Nc2nc(Nc3ccc4c(c3)oc(=O)n4CC3CC3)ncc2F)CC1(C)C` [II-163], the IC50 (Human primary T cells; Homo sapiens, T-cell, 24 h) is reported as 280 nM, the IC50 (PKC theta) is reported as 6.1 nM and the IC50 (PKC epsilon) is reported as 140 nM.
Compound `CC1(C)CC(Nc2nc(Nc3ccc4c(c3)OCC(=O)N4CCF)ncc2C#N)CC(C)(C)N1` [II-171] has an IC50 (Human primary T cells; Homo sapiens, T-cell, 24 h) of 260 nM, an IC50 (PKC theta) of 2.4 nM and an IC50 (PKC epsilon) of 775 nM.
